From ChEMBL document CHEMBL1201862, “PubChem BioAssay data set” (2004) come the findings set out here.

What all share (experiment): NCI anticancer screen, dose series, 48 h
Assay [1] has as its system SK-MEL-5.
Assay [2] has as its system MDA-N.
Assay [3] concerns SNB-19.
Assay [4] concerns T47D.
In assay [5] the test system is OVCAR-5.
Assay [6] concerns NCI-H522.
Assay [7] relates to HL-60.
In assay [8] the test system is CCRF-CEM.
For assay [9], the system named is EKVX.
In assay [10] the test system is SN12C.
Assay [11] concerns IGROV-1.
Assay [12] deals with MDA-MB-435.
Assay [13] relates to HOP-92.
Assay [14] relates to SK-MEL-28.
Assay [15] relates to M14.
Assay [16] concerns HT-29.
Assay [17] concerns NCI-H226.
The subject of assay [18] is A498.
For assay [19], the system named is HCC 2998.

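Values below derive from 48-hour exposures of cells grown in 96-well plates, with endpoints linearly interpolated between the two concentrations bracketing the appropriate inhibition level. At the GI50, growth is halved.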 Activity calls are given as the source filed them. Rule as the data show it: active = GI50 up to about 1.1 µM and inactive = higher. Where a SMILES comes first, the peptide text is derived from it. [ ]: non-standard residue; d: D form. The star is where a group is joined. Octanoyl = CCCCCCCC(=O)*; Aib = CC(C)(N)C(=O)O; tBu = CC(C)(C)* Bounds are passed on as bounds.

Regarding `OCc1cn(Cc2ccccc2)c2ccccc12`, the GI50 is 25.7 µM (inactive) in assay [1]; 35.6 µM (inactive) in assay [2]; > 64.6 µM (inactive) in assay [3]; < 0.0411 µM (active) in assay [4]; 0.375 µM (active) in [5]; 4.65 µM (inactive) in assay [6]. The GI50 in assay [7] was 5.9 µM (inactive); in assay [8] it was 0.488 µM (active); in assay [9] it was > 73.1 µM (inactive); in assay [10] it was 26 µM (inactive); in assay [11] it was < 0.0356 µM (active); in [12], > 51.9 µM (inactive). For the same compound, the GI50 is 5.51 µM (inactive) in assay [13], > 59.3 µM (inactive) in assay [14], > 32.6 µM (inactive) in assay [15] and 1.71 µM (inactive) in assay [16].

Consider `C=C(Br)C/N=C/N(C)C`, for which the GI50 in assay [1], in [2], in assay [3], in [4], in [17] and in [5] was > 100 µM (inactive) each time. Besides, the GI50 in assay [6], in [7], in [8], in assay [18], in assay [9] and in assay [10] was > 100 µM (inactive) in each case. The GI50 in [11], in [12], in assay [13], in [14], in assay [15] and in [16] was > 100 µM (inactive) in each case.

Take `CCOCCOC(=O)C1CCC(=O)N1CN(C(C)=O)c1cc(OC)ccc1OC` (configuration not stated): the GI50 in assay [1], in assay [2], in [3], in assay [4], in [17] and in [5] was > 100 µM (inactive) throughout. The GI50 in assay [6], in [18], in assay [9], in assay [10], in [11] and in assay [12] was > 100 µM (inactive) each time. Further, the GI50 in [13], in assay [14], in [15] and in assay [16] was > 100 µM (inactive) each time.

Turning to `CCOC(=O)Nc1nn(C)/c(=N/Cc2ccccc2)s1`, the GI50 in [1] was > 100 µM (inactive); in assay [2], > 100 µM (inactive); in [3], > 100 µM (inactive); in assay [4], > 100 µM (inactive); in assay [5], > 100 µM (inactive); in assay [6], 86.3 µM (inactive). Besides, the GI50 in assay [7], in [8], in [18], in [9], in assay [10] and in [11] was > 100 µM (inactive) in each case. In addition, the GI50 in [12], in assay [13] and in assay [14] was > 100 µM (inactive) each time.

`CC1COC(c2cn[nH]c2C(N)=O)C1O` (configuration not stated): the GI50 in assay [1], in assay [2], in assay [3], in assay [4], in [17] and in assay [5] was > 100 µM (inactive) in each case. The GI50 in assay [6], in [7], in assay [8], in assay [18], in assay [9] and in assay [10] was > 100 µM (inactive) each time. Besides, the GI50 in assay [11], in [12], in [14], in assay [15] and in [16] was > 100 µM (inactive) each time.

Turning to `O=C1C=C2CC[C@H]3[C@@H]4CC[C@H](Oc5c6ccccc6nc6ccccc56)[C@H]4CC[C@@H]3[C@H]2CC1`, the GI50 in assay [1] is 22.5 µM (inactive); in assay [2], 21.4 µM (inactive); in [3], > 100 µM (inactive); in assay [4], 43.1 µM (inactive); in assay [17], 60.7 µM (inactive); in assay [5], > 100 µM (inactive). For the same compound, the GI50 in assay [7] was 12.2 µM (inactive); in assay [8] it was 18.5 µM (inactive); in assay [9], 4.47 µM (inactive); in assay [10] it was 55.3 µM (inactive); in [11], 31.9 µM (inactive); in assay [12], 32.7 µM (inactive). Moreover, the GI50 is 13.3 µM (inactive) in assay [13], 48.9 µM (inactive) in assay [14], 61.9 µM (inactive) in assay [15] and 36.7 µM (inactive) in assay [16].

`COC(=O)[C@H](Cc1ccccc1)NC(=O)[C@H](Cc1ccccc1)NC(=O)[C@@H]1CCCN1C(=O)N[C@H]1C2C=CC(C2)C1C(=O)N1CCC[C@H]1C(=O)N[C@@H](C)C(=O)N[C@H](C(=O)OC)C(C)C` (some centres not stated): the GI50 was > 100 µM (inactive) in [1]; > 100 µM (inactive) in assay [2]; > 100 µM (inactive) in assay [3]; 60.1 µM (inactive) in assay [4]; > 100 µM (inactive) in assay [17]; > 100 µM (inactive) in [5]. Also, the GI50 in assay [6] was 56.5 µM (inactive); in assay [7], 35.7 µM (inactive); in [8], 22.5 µM (inactive); in assay [18], > 100 µM (inactive); in assay [9], > 100 µM (inactive); in assay [10], > 100 µM (inactive). In addition, the GI50 in assay [11] is 38 µM (inactive); in assay [12], > 100 µM (inactive); in assay [13], 73.1 µM (inactive); in [14] it was > 100 µM (inactive); in assay [15], > 100 µM (inactive); in assay [16], > 100 µM (inactive).

As to `COc1ccc(C2=C(OC(C)=O)c3cccn3-c3ccc(Cl)cc3S2)cc1`, the GI50 is 4.93 µM (inactive) in assay [1]; 2.13 µM (inactive) in assay [2]; 5.37 µM (inactive) in assay [4]; 1.59 µM (inactive) in [7]; 3.43 µM (inactive) in assay [8]; 6.67 µM (inactive) in assay [9]. Moreover, the GI50 in assay [10] is 3.74 µM (inactive); in [11], 6.28 µM (inactive); in assay [12], 2.22 µM (inactive); in [19] it was 5.43 µM (inactive); in assay [13], 1.3 µM (inactive); in [14], 4.75 µM (inactive). For the same compound, the GI50 is 5.07 µM (inactive) in [15] and 3.75 µM (inactive) in assay [16].

Take `O=C1Nc2ccc(S(=O)(=O)O)cc2/C1=N/Nc1ccccc1[N+](=O)[O-]`: the GI50 in [1] is > 100 µM (inactive); in [2], > 100 µM (inactive); in assay [3] it was > 100 µM (inactive); in assay [4] it was > 100 µM (inactive); in [17], > 100 µM (inactive); in assay [5], 42.9 µM (inactive). For the same compound, the GI50 is > 100 µM (inactive) in [6]; 70.1 µM (inactive) in assay [18]; > 100 µM (inactive) in assay [9]; > 100 µM (inactive) in assay [10]; > 100 µM (inactive) in [11]; > 100 µM (inactive) in assay [12]. The GI50 in [13], in assay [14], in assay [15] and in assay [16] was > 100 µM (inactive) throughout.

For `CCCCCCCC(=O)NC(C)(C)C(=O)NC(COC(C)(C)C)C(=O)NC(CC(C)C)C(=O)NC(C)(C)C(=O)NC(COC(C)(C)C)C(=O)NC(COC(C)(C)C)C(=O)NC(CC(C)C)C(=O)NC(C)(C)C(=O)NC(COC(C)(C)C)C(=O)NC(C(=O)NC(CC(C)C)C(=O)OC)C(C)CC` (configuration not stated) (Octanoyl-[Aib]S(tBu)L[Aib]S(tBu)S(tBu)L[Aib]S(tBu)IL-OMe; configuration not given here), the GI50 in [1] is 6.22 µM (inactive); in assay [2] it was 8.65 µM (inactive); in assay [3] it was 7.55 µM (inactive); in assay [4] it was 6.38 µM (inactive); in assay [17] it was 7.33 µM (inactive); in [5], 6.5 µM (inactive). For the same compound, the GI50 in assay [6] was 6.41 µM (inactive); in assay [7], 6.46 µM (inactive); in [8], 4.79 µM (inactive); in assay [18], 5.5 µM (inactive); in assay [9], 6.22 µM (inactive); in [10] it was 7.57 µM (inactive). For the same compound, the GI50 is 5.7 µM (inactive) in assay [11]; 7.94 µM (inactive) in [12]; 4.43 µM (inactive) in assay [13]; 14.4 µM (inactive) in [14]; 6.32 µM (inactive) in assay [15]; 4.94 µM (inactive) in assay [16].

For `CCN(CC)C(=S)SC` [METHYLDIETHYL CARBAMODITHIOATE], the GI50 in [1], in [2], in [3], in [4], in assay [17] and in [5] was > 100 µM (inactive) throughout. For the same compound, the GI50 in assay [6], in assay [7], in assay [8], in assay [18], in assay [9] and in assay [10] was > 100 µM (inactive) throughout. Besides, the GI50 in assay [11], in [19], in assay [13], in [14], in assay [15] and in [16] was > 100 µM (inactive) each time.
